From patent publication US20250188041A1, “NEW COMPOUNDS AND TREATMENT OF RENAL CELL CARCINOMA” (Trustlife Global Inc., priority 2022, published 2025) come the findings set out here.

Molecules are shown by their SMILES. Entries after “also recorded” stand apart in the source; their conditions may differ. *1 amine or outer side, *2 acyl side, *3 side chain or, on linkers, in order; H or OH if unused. Where a SMILES comes first, the peptide text is derived from it. Bridges are numbered along the chain shown (N, C = ends). Roman numbers before positions name the chains, in order. [ ]: non-standard residue; d: D form. Actinocin(9to1) = Cc1c2oc3c(C)ccc(C(=O)[*:1])c3nc-2c(C(=O)[*:2])c(N)c1=O; NMeV = CN[C@H](C(=O)O)C(C)C; Sar = CNCC(=O)O

Common to all, as to assay type: cell-based, Human
Experiment [1] deals with RRM2. Kind of experiment: Western blot, RRM2 protein level in Caki-1 treated with repurposed drugs. Conditions: 24 h, vs DMSO control. The procedure:
(§1) Cell culture 1: Human clear cell renal cell carcinoma (ccRCC) cell line Caki-1 was obtained from the Karolinska Institute of Environmental Medicine, Stockholm, Sweden, derived from a ccRCC patient. The cells were cultured in RPMI 1640 medium with 10% fetal bovine serum (FBS) and 1% penicillin/streptomycin. The cells were cultivated at 37° C. in a humidified incubator with 5% CO2. TG-101209, NVP-TAE684, MK-0752, actinomycin-d, and panobinostat were purchased from Selleckchem ([…], […], […], […], […], Selleckchem, Houston, TX, USA), and withaferin-a was purchased from Sigma (W4394, Sigma-Aldrich, Saint Louis, MO, USA). These drugs were dissolved in DMSO. The cells (from cell culture 1) were seeded in a 96-well plate at 20×10^3 cells per well. After seeding for 24 h, the cells were treated for 24 h with the target drugs: TG-101209 (6 nM), NVP-TAE684 (3 nM), MK-0752 (5 nM), withaferin-a (4 uM), actinomycin-d (0.3 nM), and panobinostat (5 nM). The cells in the negative control group were only treated by DMSO for one day. The cells were washed with phosphate-buffered saline (PBS) and lysed with CelLytic M ([…], Sigma-Aldrich, Saint Louis, MO, USA) lysis buffer containing protease inhibitors. The lysates were centrifuged at 12 000 rpm for 5 min, and the supernatant was collected. The proteins were separated by Mini-PROTEAN® TGXTM Precast Gels (BioRad, Berkeley, CA, USA) and transferred to a Trans-Blot Turbo Mini 0.2 um PVDF Transfer Packs membrane (BioRad, Berkeley, CA, USA) by using Trans-Blot® TurboTM Transfer System (Bio-Rad, Berkeley, CA, USA). The antibodies for BUB1B (HPA008419), RRM2 (HPA056994), CEP55 (HPA023430), ASF1B(HPA069385), CCNB2 (HPA008873), and GAPDH (sc47724, Santa Cruz Biotechnology, Inc.) were used for primary immunoblotting. All the antibodies were diluted at 1:10000 concentration. The membranes were incubated in primary antibody solution overnight at 4° C. with gentle rocking. […] The protein bands were detected with ImageQuanattm LAS 500 (29-0050-63, GE) automatic exposure procedure or 6 min exposure.

Experiment [2] has as its system Caki-1. Kind of experiment: CCK-8 cell viability assay of drug-treated Caki-1. Conditions: 24 h, vs DMSO control. The procedure:
Cell culture 1: Human clear cell renal cell carcinoma (ccRCC) cell line Caki-1 was obtained from the Karolinska Institute of Environmental Medicine, Stockholm, Sweden, derived from a ccRCC patient. The cells were cultured in RPMI 1640 medium with 10% fetal bovine serum (FBS) and 1% penicillin/streptomycin. The cells were cultivated at 37° C. in a humidified incubator with 5% CO2. TG-101209, NVP-TAE684, MK-0752, actinomycin-d, and panobinostat were purchased from Selleckchem ([…], […], […], […], […], Selleckchem, Houston, TX, USA), and withaferin-a was purchased from Sigma (W4394, Sigma-Aldrich, Saint Louis, MO, USA). These drugs were dissolved in DMSO. The cells (from cell culture 1) were seeded in a 96-well plate at 20×10^3 cells per well. After seeding for 24 h, the cells were treated for 24 h with the target drugs: TG-101209 (6 nM), NVP-TAE684 (3 nM), MK-0752 (5 nM), withaferin-a (4 uM), actinomycin-d (0.3 nM), and panobinostat (5 nM). The cells in the negative control group were only treated by DMSO for one day. Cell proliferation was detected by Cell Counting Kit-8 (CCK-8) assay. The 10 μl of CCK-8 reagent (1:10) was added to each well of 96-well plate with siRNA transfected cells or drug-treated cells by manufacturer's instruction. The 96-well plate was incubated at 37° C. for 2 hours and then measured absorbance at 450 nm using a microplate reader (Hidex Sense Beta Plus).
(Tetrazolium dyes change colour on reduction, which living cells bring about.)

The test system of experiment [3] is BUB1B. The experiment in a line: Western blot, BUB1B protein level in Caki-1 treated with repurposed drug. The settings on record: Caki-1, 6 nM, 24 h, compared to negative control (DMSO). The procedure:
as §1, with “inhibitors.” for “inhibitors. The lysates were centrifuged at 12 000 rpm for 5 min, and the supernatant was collected. The proteins were separated by Mini-PROTEAN® TGXTM Precast Gels (BioRad, Berkeley, CA, USA) and transferred to a Trans-Blot Turbo Mini 0.2 um PVDF Transfer Packs membrane (BioRad, Berkeley, CA, USA) by using Trans-Blot® TurboTM Transfer System (Bio-Rad, Berkeley, CA, USA). The antibodies for BUB1B (HPA008419), RRM2 (HPA056994), CEP55 (HPA023430), ASF1B(HPA069385), CCNB2 (HPA008873), and GAPDH (sc47724, Santa Cruz Biotechnology, Inc.) were used for primary immunoblotting. All the antibodies were diluted at 1:10000 concentration. The membranes were incubated in primary antibody solution overnight at 4° C. with gentle rocking.”

Experiment [4] concerns BUB1B. The experiment in a line: Western blot, BUB1B expression in Caki-1 treated with TG-101209 alternatives. The settings on record: Caki-1, 5 μM of target drug, 1 day (FIG. 41; method says 2 days). The procedure:
(§2) Cell culture 2: Caki-1 was purchased from CLS Cell Lines Service (Germany). The cells were maintained in McCoy's SA (modified) medium (16600082, Thermo Fisher Scientific, USA) and supplemented with 10% fetal bovine serum (FBS, F7524, Sigma-Aldrich), 1% Penicillin/Streptomycin (P4333, Sigma-Aldrich).
The target drugs developed as alternatives to TG-101209, were dissolved in 0.1% DMSO (41639, Sigma-Aldrich). Caki-1 cells from cell culture 2 were seeded in a 6-well plate at 3×10^5 cells per well. […]
The cells were washed with PBS solution and then lysed with CelLytic M (C2978, Sigma-Aldrich) lysis buffer containing protease inhibitors (11836170001, Roche). The cell lysates were centrifuged at 12 000 rpm for 10 min and supernatants were collected. Protein Assay Dye Reagent (5000006, Bio-Rad) was used for the determination of protein concentration. The absorbance of the proteins was measured spectrophotometrically at 595 nm by a microplate reader (Hidex Sense Beta Plus). Protein electrophoresis was performed using Mini-PROTEAN® TGX™ Precast Gels (4561086, Bio-Rad) and then the separated proteins were transferred to a Trans-Blot Turbo Mini 0.2 um PVDF Transfer Packs membrane (1704158, Bio-Rad) by using Trans-Blot® Turbo™ Transfer System (Bio-Rad). The membrane was blocked with 5% skim milk for 30 min at 4° C. with gentle rocking. After blocking, the membrane was treated with primary antibodies: Anti-BUB1B (HPA008419, Human Protein Atlas, Sweden) and Anti-Beta actin (ab8227, Abcam) as a loading control overnight at 4° C. on a rocking platform. After the treatment of primary antibodies, the membrane was washed three times with TBS-T buffer (A09-7500-100, Medicago). Then, Goat anti-Rabbit IgG-HRP (ab205718, Abcam) was treated as the secondary antibody for 30 min at 4° C. with gentle rocking.
(Immunoblotting shows a protein as a band on a membrane.)

Experiment [5] concerns Caki-1 cells. The experiment in a line: MTT cell viability assay of Caki-1 treated with TG-101209 and its alternatives. The procedure:
as §2
The cytotoxic effects of the TG-101209 and its alternatives on the Caki-1 cells were tested by MTT (Thiazolyl Blue Tetrazolium Bromide) method. 1.5×10^4 cells were seeded per well in a 96-well plate in 100 μL growth media. […] After the incubation period, 5 mg/ml MTT (M2128, Sigma-Aldrich) solution in PBS (10 μL) was added to each well. After 1 hour, the MTT solution and all media were removed from the wells. 100 μl of DMSO was added and mixed to dissolve the formazan crystals. Cell viability was analysed by measuring the absorbance of the dissolved formazan at a wavelength of 570 nm with a microplate reader (Hidex Sense Beta Plus).

Turning to `COc1cc(N2CCC(N3CCN(C)CC3)CC2)ccc1Nc1ncc(Cl)c(Nc2ccccc2S(=O)(=O)C(C)C)n1` [NVP-TAE684], in experiment [1] (Caki-1, 3 nM), the “protein level of RRM2” value was “significantly suppressed”. The cell viability result in experiment [2] (Caki-1, CCK-8, 3 nM) is recorded as “significantly reduced”.

A word on the IC50: it is the concentration that inhibits the measured activity by half. A higher IC50 goes with a need for much substance. In the case of `Cc1cnc(Nc2ccc(N3CCN(C)CC3)cc2)nc1Nc1cccc(S(=O)(=O)NC(C)(C)C)c1` [TG-101209, reference compound], in experiment [3], the “protein level of BUB1B” value is reported as “significantly decreased; also recorded: significantly reduced”. Moreover, in experiment [2] (Caki-1, CCK-8, 6 nM), the cell viability entry was “significantly reduced”. The “expression levels of BUB1B” value in experiment [4] is on record as “significantly lower the expression levels of BUB1B”. Also, the “cell viability (MTT assay)” value in experiment [5] (Caki-1, 10 μM, 1 day) is reported as “most profound effect on the cell viability”. The molecule also displayed a 50% inhibitory concentration (IC50) in experiment [5] (FIG. 43, assay not named, presumably Caki-1 cell viability) of roughly 3000 nM. Also, the “Ranking, Cell viability (%)” value in experiment [5] (top five target drugs, MTT assay, 10 μM, 1 day, rank 1 = greatest reduction) was found to be 5.

Consider `Cc1c2oc3c(C)ccc(C(=O)N[C@@H]4C(=O)N[C@H](C(C)C)C(=O)N5CCC[C@H]5C(=O)N(C)CC(=O)N(C)[C@@H](C(C)C)C(=O)O[C@@H]4C)c3nc-2c(C(=O)N[C@@H]2C(=O)N[C@H](C(C)C)C(=O)N3CCC[C@H]3C(=O)N(C)CC(=O)N(C)[C@@H](C(C)C)C(=O)O[C@@H]2C)c(N)c1=O` [actinomycin-d] (I: T[dV]P[Sar][NMeV] / II: T[dV]P[Sar][NMeV]; ester I:1-I:C, II:1-II:C; linker I:N-II:N via Actinocin(9to1)), for which the “protein level of RRM2” value in experiment [1] (Caki-1, 0.3 nM) is “does not work for inhibiting RRM2”.

Regarding `CC1=C(CO)C(=O)O[C@@H]([C@@H](C)[C@H]2CC[C@H]3[C@@H]4C[C@H]5O[C@]56[C@@H](O)C=CC(=O)[C@]6(C)[C@H]4CC[C@]23C)C1` [withaferin-a], the “protein level of RRM2” value in experiment [1] (Caki-1, 4 uM) is listed as “significantly suppressed”. For the same molecule, the cell viability result in experiment [2] (Caki-1, CCK-8, 4 uM) was “significantly reduced”.
